Experimental data: publication PMC5431432, “Low-basicity 5-HT7 Receptor Agonists Synthesized Using the van Leusen Multicomponent Protocol” (Scientific Reports, 2017)
Entries after “also recorded” stand apart in the source; their conditions may differ. Read-outs that look alike come from different tables or passages of the source.

Columns and labels:
[1] = target: T1, human serotonin 5-HT1AR (Homo sapiens, UniProt P08908); assay: Radioligand binding, [3H]-8-OH-DPAT displacement
T1 sequence (P08908 1-422): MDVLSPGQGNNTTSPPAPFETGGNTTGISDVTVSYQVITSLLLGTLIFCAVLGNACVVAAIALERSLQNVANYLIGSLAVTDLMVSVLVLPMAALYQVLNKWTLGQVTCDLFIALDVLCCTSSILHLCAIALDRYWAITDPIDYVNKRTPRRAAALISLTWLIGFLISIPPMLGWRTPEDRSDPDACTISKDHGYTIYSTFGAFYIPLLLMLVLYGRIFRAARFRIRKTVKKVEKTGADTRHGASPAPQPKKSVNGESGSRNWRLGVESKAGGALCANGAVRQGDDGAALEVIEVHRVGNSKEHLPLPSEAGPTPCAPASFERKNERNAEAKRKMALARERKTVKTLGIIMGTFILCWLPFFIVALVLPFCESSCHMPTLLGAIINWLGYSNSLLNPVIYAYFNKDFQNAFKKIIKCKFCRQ

[2] = target: T2, human serotonin 5-HT2A receptor (Homo sapiens, UniProt P28223); assay: Radioligand binding, [3H]-ketanserin displacement
T2 construct: host or cells: CHO-K1
T2 sequence (P28223 whole entry): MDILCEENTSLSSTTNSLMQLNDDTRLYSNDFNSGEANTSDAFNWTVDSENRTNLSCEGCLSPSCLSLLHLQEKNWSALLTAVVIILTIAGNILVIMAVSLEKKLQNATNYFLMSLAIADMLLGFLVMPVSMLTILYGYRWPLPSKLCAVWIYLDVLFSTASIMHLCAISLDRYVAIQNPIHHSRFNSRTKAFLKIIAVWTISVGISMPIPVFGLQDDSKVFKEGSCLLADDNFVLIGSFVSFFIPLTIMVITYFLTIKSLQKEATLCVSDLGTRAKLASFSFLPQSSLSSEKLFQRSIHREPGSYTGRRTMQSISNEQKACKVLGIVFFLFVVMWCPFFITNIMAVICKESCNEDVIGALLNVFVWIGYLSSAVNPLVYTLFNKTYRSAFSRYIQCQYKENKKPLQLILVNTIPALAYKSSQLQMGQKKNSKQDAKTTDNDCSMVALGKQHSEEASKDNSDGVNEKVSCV

[3] = target: human serotonin 5-HT6R (Homo sapiens, UniProt P50406); assay: Radioligand binding, [3H]-LSD displacement
human serotonin 5-HT6R, sequence (P50406 whole entry): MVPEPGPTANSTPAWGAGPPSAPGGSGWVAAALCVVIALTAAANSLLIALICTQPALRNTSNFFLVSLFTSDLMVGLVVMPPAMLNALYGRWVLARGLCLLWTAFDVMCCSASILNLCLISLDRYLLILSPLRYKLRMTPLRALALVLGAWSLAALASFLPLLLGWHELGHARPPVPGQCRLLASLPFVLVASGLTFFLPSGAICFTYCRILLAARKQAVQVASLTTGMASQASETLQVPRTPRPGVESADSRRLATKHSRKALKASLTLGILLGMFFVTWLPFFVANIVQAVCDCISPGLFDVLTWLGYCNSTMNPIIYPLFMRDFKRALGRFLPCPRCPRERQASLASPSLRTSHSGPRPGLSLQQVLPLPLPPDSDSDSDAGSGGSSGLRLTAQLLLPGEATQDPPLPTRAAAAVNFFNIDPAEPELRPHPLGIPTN

[4] = target: human serotonin 5-HT7bR (Homo sapiens, UniProt P34969); assay: Radioligand binding, [3H]-5-CT displacement
human serotonin 5-HT7bR, sequence (P34969 1-432 limits assumed): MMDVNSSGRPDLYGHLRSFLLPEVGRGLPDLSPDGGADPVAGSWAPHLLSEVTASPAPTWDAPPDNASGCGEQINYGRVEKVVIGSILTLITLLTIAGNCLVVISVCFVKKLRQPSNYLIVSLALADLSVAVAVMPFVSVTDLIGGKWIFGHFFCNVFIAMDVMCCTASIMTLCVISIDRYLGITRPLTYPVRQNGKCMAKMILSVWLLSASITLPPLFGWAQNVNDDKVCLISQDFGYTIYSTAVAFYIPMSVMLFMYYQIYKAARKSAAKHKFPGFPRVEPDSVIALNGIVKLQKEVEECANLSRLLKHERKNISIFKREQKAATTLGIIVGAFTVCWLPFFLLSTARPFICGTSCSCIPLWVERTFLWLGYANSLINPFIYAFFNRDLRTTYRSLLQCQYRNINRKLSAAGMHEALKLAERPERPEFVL

[5] = target: human dopamine D2LR (Homo sapiens, UniProt P14416); assay: Radioligand binding, [3H]-raclopride displacement
human dopamine D2LR, sequence (P14416 whole entry): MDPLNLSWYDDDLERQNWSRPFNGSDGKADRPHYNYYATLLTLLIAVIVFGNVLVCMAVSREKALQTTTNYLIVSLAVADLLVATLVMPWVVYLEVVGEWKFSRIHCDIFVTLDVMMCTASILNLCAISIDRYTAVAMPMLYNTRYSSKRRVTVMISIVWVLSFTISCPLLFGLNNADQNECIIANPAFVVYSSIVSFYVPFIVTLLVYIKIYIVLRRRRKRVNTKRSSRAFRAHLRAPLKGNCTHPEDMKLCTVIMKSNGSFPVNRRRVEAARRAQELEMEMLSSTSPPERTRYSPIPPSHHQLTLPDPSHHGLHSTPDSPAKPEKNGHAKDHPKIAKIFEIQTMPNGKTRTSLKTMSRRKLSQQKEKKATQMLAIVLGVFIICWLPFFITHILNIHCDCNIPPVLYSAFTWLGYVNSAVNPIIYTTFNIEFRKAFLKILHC

[6] = target: human 5-HT7 receptor (Homo sapiens, UniProt P34969); assay: Functional assay, cAMP production (TR-FRET) in HEK293 cells overexpressing 5-HT7R; format: cell-based; details: for EC50: hydrochloride salts
human 5-HT7 receptor, sequence (P34969 1-432 limits assumed): as the sequence (P34969 1-432 limits assumed) above

[7] = Metabolic stability in human liver microsomes; format: in vitro ADME; details: human, read-out: Clint, metabolic clearance
Experimental: The in vitro evaluation of metabolic stability was performed by using human liver microsomes
(HLMs) (Sigma-Aldrich, St. Louis, MO, USA). The reaction mixtures consisted of 50 μM of tested
compounds with microsomes (1 mg/ml) in 10 mM tris-HCl buffer.
preincubation, the 50 µL of NADPH Regeneration System (Promega, Madison, WI, USA) was
added to initiate the reaction. The reactions were terminated by the addition of the cold methanol
The mixtures were centrifuged
The course of reaction was followed by using the
analyte/IS peak height ratio values.
Mass spectra were recorded on a UPLC-MS/MS system consisted of a Waters ACQUITY® UPLC® (Waters Corporation, Milford, MA, USA) coupled to a Waters TQD mass spectrometer
(electrospray ionization mode ESI-tandem quadrupole). Chromatographic separations were carried
particle size, equipped with Acquity UPLC BEH C18 VanGuard pre-column; 2.1 × 5 mm, and
The column was maintained at 40 °C, and eluted under gradient conditions
acid (0.1%, v/v); eluent B: acetonitrile/formic acid (0.1%, v/v). Chromatograms were made using
sampling rate 20 points/s. MS detection settings of Waters TQD mass spectrometer were as
600 L h−1, cone gas flow 100 L h−1, capillary potential 3.00 kV, cone potential 40 V. Nitrogen was
used for both nebulizing and drying gas. The data were obtained in a scan mode ranging from 50 to
2000 m/z in time 1.0 s intervals. Data acquisition software was MassLynx V 4.1 (Waters). The

[8] = target: T3, 5-HT1B (Homo sapiens, UniProt P28222); assay: Eurofins Cerep binding screen 5-HT1B; details: 10^−6 M; read-out: % Inhibition of control binding 5-HT1B
T3 construct: Eurofins Cerep (contract screen)
T3 sequence (P28222 whole entry, species assumed): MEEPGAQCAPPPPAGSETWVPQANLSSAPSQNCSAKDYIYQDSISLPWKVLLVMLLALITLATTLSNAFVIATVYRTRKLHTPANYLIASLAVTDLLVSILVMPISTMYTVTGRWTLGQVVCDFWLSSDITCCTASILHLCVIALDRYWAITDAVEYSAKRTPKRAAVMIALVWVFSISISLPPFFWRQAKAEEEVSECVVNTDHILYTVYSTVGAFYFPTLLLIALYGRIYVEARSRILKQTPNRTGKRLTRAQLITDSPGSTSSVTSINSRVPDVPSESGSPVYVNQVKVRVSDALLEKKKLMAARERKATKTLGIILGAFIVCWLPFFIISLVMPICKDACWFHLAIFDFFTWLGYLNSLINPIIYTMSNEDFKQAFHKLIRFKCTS

[9] = target: T4, 5-HT2B (Homo sapiens, UniProt P41595); assay: Eurofins Cerep binding screen 5-HT2B; details: read-out: % Inhibition of control binding 5-HT2B
T4 construct: Eurofins Cerep (contract screen)
T4 sequence (P41595 whole entry, species assumed): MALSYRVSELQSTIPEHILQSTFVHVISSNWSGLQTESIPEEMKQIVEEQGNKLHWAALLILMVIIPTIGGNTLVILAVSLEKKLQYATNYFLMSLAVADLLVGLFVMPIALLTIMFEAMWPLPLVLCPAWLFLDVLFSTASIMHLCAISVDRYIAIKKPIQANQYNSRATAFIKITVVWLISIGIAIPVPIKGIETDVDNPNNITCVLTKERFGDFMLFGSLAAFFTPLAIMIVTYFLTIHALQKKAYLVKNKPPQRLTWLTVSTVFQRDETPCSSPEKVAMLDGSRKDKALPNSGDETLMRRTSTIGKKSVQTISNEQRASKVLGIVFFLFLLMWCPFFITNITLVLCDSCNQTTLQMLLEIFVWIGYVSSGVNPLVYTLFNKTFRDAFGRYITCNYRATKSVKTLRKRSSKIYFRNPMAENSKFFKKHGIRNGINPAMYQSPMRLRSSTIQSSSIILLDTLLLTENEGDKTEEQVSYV

[10] = target: T5, 5-HT5A (Homo sapiens, UniProt P47898); assay: Eurofins Cerep binding screen 5-HT5A; details: 10^−6 M; read-out: % Inhibition of control binding 5-HT5A
T5 construct: Eurofins Cerep (contract screen)
T5 sequence (P47898 whole entry, species assumed): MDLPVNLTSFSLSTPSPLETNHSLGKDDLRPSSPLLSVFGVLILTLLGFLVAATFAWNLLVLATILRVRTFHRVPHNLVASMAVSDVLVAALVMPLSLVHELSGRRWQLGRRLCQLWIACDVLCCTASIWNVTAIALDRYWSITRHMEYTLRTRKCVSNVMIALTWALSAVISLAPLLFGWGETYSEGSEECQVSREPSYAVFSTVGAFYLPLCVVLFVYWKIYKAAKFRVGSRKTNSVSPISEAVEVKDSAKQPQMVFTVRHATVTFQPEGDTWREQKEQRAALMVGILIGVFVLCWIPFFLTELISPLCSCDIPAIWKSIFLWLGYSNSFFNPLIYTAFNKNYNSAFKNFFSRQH

[11] = system: HEK-293 cells; assay: MTS cytotoxicity assay HEK-293; format: cell-based, human; details: 72 h incubation, 0.1–100 μM
Experimental: (§1) The cell line was cultured in Dulbecco’s Modified Eagle’s Medium DMEM (Gibco) with 10% fetal bovine
(§2) The cells were cultured in Modified Eagle’s Medium
(§3) MEM with 100 mg/ml streptomycin and 100 U/ml penicillin, 1%, Non Essential Amino Acids (NEAA) and
(§4) solutions of examined compounds in DMSO were diluted into fresh growth medium and added into the
(§5) microplates at the final concentrations 0.1 μM – 100 μM. The well-known cytostatic compound
(§6) doxorubicin (DX) 1 μM was used as a positive control for both cell lines. Additionally, carbonyl cyanide
(§7) 3-chlorophenylhydrazone (CCCP) 10 μM was used as positive control mitochondrial toxin for hepatocytes.
(§8) Proliferation Assay, Promega) was added to the each well and the cells were incubated under the same
(§9) conditions for 4 h. The absorbance of the samples was measured using a microplate reader (PerkinElmer) at

[12] = system: HepG2 cells; assay: MTS cytotoxicity assay HepG2; format: cell-based; details: 72 h incubation, 0.1–100 μM
Experimental: as §1, §2, §3, §4, §5, §6, §7, §8, §9

[13] = Pharmacokinetics after i.p. administration in mice; format: in vivo, CD-1 mice
Experimental: A group of 32 adult male mice (CD-1, 18-21 g) were used in the experiment.
During the habituation period the groups of 4 mice were kept in a plastic cage (252 mm x 167 cm x
140 cm) at a controlled room temperature (22±2°C), humidity (55±10%), full spectrum cold white light
access to standard laboratory pellet and tap water.
administered by an intraperitoneal (i.p.) administration at a dose of 5 mg/kg. Blood samples were collected
administration. The blood and brain samples were collected under general anesthesia induced by i.p.
injections of 50 mg/kg ketamine plus 8 mg/kg xylazine. The blood samples were taken into heparinized
tubes, immediately centrifuged at 3500 rpm for 10 min and plasma was collected. The brain and plasma
samples were immediately frozen at - 80°C for LC/MS/MS analysis.
Pharmacokinetic parameters were calculated by a non-compartmental approach from the average
elimination rate constant (λz) was calculated by linear regression of time versus log concentration. Next, the
area under the mean serum and tissue concentration versus time curve (AUC0→t) was estimated using the
log-linear trapezoidal rule (Eq. 1), where Cn is the concentration of last sampling of each compound.
Area under the first-moment curve (AUMC0→t) was estimated by calculation of the total area under the
first-moment curve using the equation 2, where tn is the time of last sampling.
Mean residence time (MRT) was calculated as:
Total clearance (ClT) was calculated as:
Volume of distribution (Vd) was calculated as:
The quantification of studied compound in plasma and brain samples was done using UPLC Agilent 1100
system (Agilent Technologies, Waldbronn, Germany) coupled to the triple quadrupole mass spectrometer
API 2000 (ABSciex, Framingham, Massachusetts, USA) equipped with electrospray ion source. After
Milford, Massachusetts, USA) analytical column. The mobile phase consisted of ACN with 0.1% formic
acid (A) and water with 0.1% formic acid (B) were delivered in gradient elution started with 90% of eluent
B, increasing during 2 min to 90% of eluent A, maintained to 3 min, and then returned during 5 min to 90% of
eluent B, and maintained 90% of eluent B during 5 min at a flow rate of 300 µL/min. The total time of
analysis was 10 min. Electrospray ionization process was performed in positive ionization and the data
(nebivolol). The ion spray source settings were as follows: spray voltage: 5.5 kV, heater temperature:
400°C, curtain gas: 20 psi, source gas 1: 40 psi, source gas 2: 20 psi.

[14] = system: MK-801 induced impairment in novel object recognition; assay: Novel object recognition test, reversal of MK-801 induced impairment; parameters: species or system Albino Swiss mice; details: mouse, in vivo
Experimental: The experiment was conducted on Albino Swiss mice (see Supporting Information).
trained and tested in a black, plastic, open field (50 × 30 cm, 35 cm high) with the floor divided into 20-cm
The open field was in a dark room illuminated only by a 25 W bulb. On the first day
(adaptation) the animals were allowed to explore the open field for 10 min. On the next day (training, T1) the
animals were administered the tested drugs, placed in the apparatus and allowed to explore two identical
objects (cylindrical objects with walls painted white, 7 cm in diameter, 11 cm high) for the time required to
complete 15 s of exploration of either object. For the retention trial (T2) conducted one h later, one of the
objects presented in T1 was replaced with a novel object (a prism-shaped object with walls painted black,
5 cm wide, 14 cm high). The duration of exploration of each object (i.e., sitting in close proximity to the
objects or sniffing or touching them) during 5 min time was video recorded and measured separately by a
trained observer. All drugs were administered before the training (T1) session.

[15] = Water solubility (statement); format: physicochemical
[16] = target: CYP3A4 (Homo sapiens, UniProt P08684); assay: biochemical
CYP3A4, sequence (P08684 whole entry): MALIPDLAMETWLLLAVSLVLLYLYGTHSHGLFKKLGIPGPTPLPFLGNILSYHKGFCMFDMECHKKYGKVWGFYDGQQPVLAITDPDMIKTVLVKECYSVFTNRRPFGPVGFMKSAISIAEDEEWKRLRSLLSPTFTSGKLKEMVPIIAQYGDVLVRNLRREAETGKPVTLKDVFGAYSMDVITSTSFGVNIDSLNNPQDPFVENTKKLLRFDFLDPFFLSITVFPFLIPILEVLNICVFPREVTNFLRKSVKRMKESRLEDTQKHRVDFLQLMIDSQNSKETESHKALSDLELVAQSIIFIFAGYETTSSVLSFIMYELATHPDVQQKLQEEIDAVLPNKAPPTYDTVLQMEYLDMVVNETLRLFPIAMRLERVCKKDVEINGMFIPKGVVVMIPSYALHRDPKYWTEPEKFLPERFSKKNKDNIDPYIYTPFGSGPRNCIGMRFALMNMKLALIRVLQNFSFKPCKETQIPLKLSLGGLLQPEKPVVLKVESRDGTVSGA
Experimental: Drug-drug interactions (DDI) – the influence on CYP3A4 activity
The luminescent CYP3A4 P450-Glo™ assay and protocol were provided by Promega (Madison, WI, USA)
was obtained from Sigma-Aldrich (St. Louis, USA). The enzymatic reactions were performed in white
polystyrene, flat-bottom Nunc™ MicroWell™ 96-Well Microplates (Thermo Scientific, Waltham, MA
USA). The luminescence signal was measured with a microplate reader in luminescence mode (EnSpire,
PerkinElmer, Waltham, MA USA).
The final concentrations of 1e and
to calculate IC50 values.

[17] = Fig. 2, read-out: pKi 5-HT1A (converted)
[18] = Fig. 2, read-out: pKi 5-HT2A (converted)
[19] = Fig. 2, read-out: pKi 5-HT6 (converted)
[20] = Fig. 2, read-out: pKi 5-HT7 (converted)
[21] = Fig. 2, read-out: pKi D2 (converted)

Cn1cncc1-c1ccccc1 [2e]
Ki [1, 17]: > 10 µM | Ki [2, 18]: > 10 µM | Ki [3, 19]: > 10 µM | Ki [4, 20]: > 10000 nM | Ki [5, 21]: > 10 µM

CCn1cncc1-c1c[nH]c2cccc(Br)c12 [1k]
Ki [1, 17]: > 10 µM | Ki [2, 18]: > 10 µM | Ki [3, 19]: 8.71 µM | binding to 5-HT7R in words [4]: low affinity | Ki [4, 20]: 2290 nM | Ki [5, 21]: > 10 µM

CCn1cncc1-c1c[nH]c2ccc(Br)cc12 [1n]
Ki ([4]; read-out: K i (5-HT7R)): 20 nM | function at the human 5-HT7 receptor [6]: full agonists | EC50 [6]: 0.154 µM

CCCn1cncc1-c1c[nH]c2ccc(OC)cc12 [1f]
Ki [1, 17]: > 10 µM | Ki [2, 18]: 4.27 µM | Ki [3, 19]: > 10 µM | Ki [4, 20]: 64.6 nM | Ki [5, 21]: > 10 µM

CCn1cncc1-c1c[nH]c2ccc(F)cc12 [1l]
Ki ([4]; read-out: Ki 5-HT7): 302 nM

COc1ccc2[nH]cc(-c3cncn3C)c2c1 [1b]
Ki [1, 17]: 0.851 µM | Ki [2, 18]: 3.39 µM | Ki [3, 19]: 2.4 µM | selectivity over 5-HT1AR [4]: > 11 fold | Ki ([4]; Table 1, the head of this column prints no unit, nM, read-out: K i (5-HT7R)): 55 nM | Ki [5, 21]: > 10 µM | function at the human 5-HT7 receptor [6]: full agonists | EC50 [6]: 0.15 µM | melting point: 236 °C

COc1cccc(-c2cncn2C)c1 [2c]
Ki [1, 17]: > 10 µM | Ki [2, 18]: > 10 µM | Ki [3, 19]: 8.91 µM | Ki [4, 20]: > 10000 nM | Ki [5, 21]: > 10 µM

COc1ccc2[nH]cc(-c3cncn3C3CC3)c2c1 [1h]
Ki [1, 17]: 1.29 µM | Ki [2, 18]: > 10 µM | Ki [3, 19]: 5.25 µM | binding to 5-HT7R in words [4]: non-active | Ki [4, 20]: 3310 nM | Ki [5, 21]: > 10 µM

CCn1cncc1-c1cn(C)c2ccc(OC)cc12 [1d]
Ki [1, 17]: 5.01 µM | Ki [2, 18]: > 10 µM | Ki [3, 19]: 5.5 µM | Ki ([4]; read-out: Ki 5-HT7): > 10000 nM | Ki [5, 21]: > 10 µM

CCn1cncc1-c1c[nH]c2ccc(I)cc12 [1o, 3-(1-ethyl-1H-imidazol-5-yl)-5-iodo-1H-indole]
selectivity over 5-HT1AR [4]: 176 fold | Ki ([4]; read-out: K i (5-HT7R)): 6 nM | function at the human 5-HT7 receptor [6]: full agonists | EC50 [6]: 0.019 µM | CLint scaled at 50 μM [7]: 0.378 L/h/kg | inhibition at 1 µM [8]: 40% | inhibition at 1 µM ([9]; 10^−6 M (1 µM)): 87% | inhibition at 0.01 µM ([9]; 10^−8 M (10 nM)): 7% | inhibition at 1 µM [10]: 7% | cell viability in words, HEK-293 [11]: toxic for the cells only in the highest concentration (100 μM) | cell viability in words, HepG2 [12]: toxic for the cells only in the highest concentration (100 μM) | blood/plasma ratio compared to LP-44 ([13]; 1o 5 mg/kg i.p. vs LP-44 10 mg/kg i.p.): three-fold higher | brain/plasma ratio compared to LP-211 ([13]; 1o 5 mg/kg i.p. vs LP-211 10 mg/kg i.p.): 9 times | Cmax brain ([13]; i.p. 5 mg/kg): 2723 ng/g | Cmax brain (molar) ([13]; i.p. 5 mg/kg): approx. 8 μM | maximum plasma concentration ([13]; i.p. 5 mg/kg): 749 ng/mL | maximum plasma concentration (molar) ([13]; i.p. 5 mg/kg): ~ 2.2 μM | time in which half of the compound was eliminated from the body ([13]; i.p. 5 mg/kg): ≤ 90 min | t0.5 brain ([13]; i.p. 5 mg/kg, brain): 130 min | last sampling time at which measurable ([13]; i.p. 5 mg/kg, plasma and brain): 6 h | MRT ([13]; male, CD-1, mouse, brain, ip, i.p. 5 mg/kg, read-out: MRT brain (converted)): 60 min | Kp ([13]; male, CD-1, mouse, brain/plasma, ip, i.p. 5 mg/kg, read-out: brain to plasma ratio): 6.34 | Tmax ([13]; male, CD-1, mouse, ip, i.p. 5 mg/kg, plasma): 15 min | Vd/F ([13]; male, CD-1, mouse, plasma, ip, i.p. 5 mg/kg): 46.6 L/kg | MRT ([13]; male, CD-1, mouse, plasma, ip, i.p. 5 mg/kg, read-out: MRT plasma (converted)): 27 min | reversal of MK-801 induced disruption in novel object recognition [14]: active; also recorded: dose-dependently reversed MK-801-induced disruption in novel object recognition; also recorded: reversed MK-801 induced novel object recognition impairment | water solubility in words [15]: water soluble | IC50 [16]: 0.17 µM

COc1cc(-c2cncn2C)c(OC)cc1I [2f]
Ki [1, 17]: > 10 µM | Ki [2, 18]: > 10 µM | Ki [3, 19]: 5.37 µM | Ki [4, 20]: > 10000 nM | Ki [5, 21]: 6.92 µM

COc1ccccc1-c1cncn1C [2d]
Ki [1, 17]: > 10 µM | Ki [2, 18]: > 10 µM | Ki [3, 19]: > 10 µM | Ki [4, 20]: 2450 nM | Ki [5, 21]: > 10 µM

CCn1cncc1-c1c(C)[nH]c2ccc(OC)cc12 [1v]
Ki [1, 17]: > 10 µM | Ki [2, 18]: > 10 µM | Ki [3, 19]: > 10 µM | Ki [4, 20]: > 10000 nM | Ki [5, 21]: > 10 µM

CCn1cncc1-c1ccc2cc[nH]c2c1 [3d]
Ki [1, 17]: > 10 µM | Ki [2, 18]: > 10 µM | Ki [3, 19]: 4.57 µM | Ki [4, 20]: 2630 nM | Ki [5, 21]: > 10 µM

COc1ccc2[nH]cc(CCN)c2c1 [5-methoxytryptamine, reference compound]
Ki [5]: > 10 µM

Cn1cc(CCN)c2ccccc21 [1-methyltryptamine, reference compound]
Ki [1]: 2.39 µM | Ki [2]: 6.59 µM | Ki [3]: 3.62 µM | Ki [4]: 4830 nM | Ki [5]: 6.54 µM

CCn1cncc1-c1c[nH]c2cc(Br)ccc12 [1j]
Ki [1, 17]: > 10 µM | Ki [2, 18]: > 10 µM | Ki [3, 19]: 6.92 µM | binding to 5-HT7R in words [4]: low affinity | Ki [4, 20]: > 10000 nM | Ki [5, 21]: > 10 µM
